Legend:
Dopamine-D5 = Dopamine-D5 (Homo sapiens, UniProt P21918); experiment: In vitro receptor affinity, Dopamine-D5; assay type: binding
Description: (§1) The binding data collected in the table below (Example 5: pharmacological test results) were either obtained by CEREP (128, rue Danton, 92500 Rueil-Malmaison, France) or at Solvay Pharmaceuticals B.V. (C. J. van Houtenlaan 36, 1381 CP Weesp, The Netherlands), using well documented standard procedures. The affinities for dopamine-D2 and 5-HT1A receptors for instance, was measured as described by Creese I, Schneider R and Snyder S H, [^3H]-Spiroperidol labels dopamine receptors in rat pituitary and brain, Eur J Pharmacol […], 46: 377-381 and Gozlan H, El Mestikawy S, Pichat L, Glowinsky J and Hamon M, 1983, Identification of presynaptic serotonin autoreceptors using a new ligand ^3H-PAT, Nature 1983, 305: 140-142.

Dopamine-D2 = Dopamine-D2 (Homo sapiens, UniProt P14416); experiment: In vitro receptor affinity, Dopamine-D2; assay type: binding
Chain of Dopamine-D2 (P14416 whole entry): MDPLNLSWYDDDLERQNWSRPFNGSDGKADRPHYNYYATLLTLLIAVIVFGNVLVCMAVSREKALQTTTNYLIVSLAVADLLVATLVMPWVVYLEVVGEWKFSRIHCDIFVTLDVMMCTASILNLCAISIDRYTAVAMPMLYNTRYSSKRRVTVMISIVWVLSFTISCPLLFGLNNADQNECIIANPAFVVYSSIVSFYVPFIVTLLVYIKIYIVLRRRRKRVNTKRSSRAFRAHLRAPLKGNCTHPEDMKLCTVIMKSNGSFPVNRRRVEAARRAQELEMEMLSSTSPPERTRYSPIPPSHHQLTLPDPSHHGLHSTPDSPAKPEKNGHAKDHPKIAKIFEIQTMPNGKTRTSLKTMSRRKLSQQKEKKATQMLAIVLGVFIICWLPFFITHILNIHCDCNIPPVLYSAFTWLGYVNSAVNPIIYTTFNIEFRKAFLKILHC
Description: as §1

[1] = test system: 6-OH-dopamine induced turning behavior in rats; experiment: 6-OH-dopamine induced turning behavior in rats; assay type: in vivo; conditions: Rattus norvegicus, po, read-out: Antagonism of 6-OH dopamine induced turning behavior after oral dosing: ED50
Description: 6-OH-dopamine induced turning behavior in rats (Ungerstedt U, 6-OH-DA induced degeneration of central monoamine neurons, Eur. J. Pharmacol. 1968 5: 107-110). Specifically:
Male rats (Wistar, Harlan, Netherlands; 400-500 g at time of experiment) are housed in a temperature (20-21±2° C.) and humidity controlled environment and receive water ad libitum except during experimental sessions. Food is restricted to approximately 15 g per rat per day. A 12-hour light-dark cycle (lights on 07.00-19.00 hour) is used. All experimental procedures are conducted in accordance with Dutch law and conform to local animal care and use committee stipulations.
Unilateral 6-hydroxydopamine (6-OHDA) lesions of the substantia nigra zona compacta are performed using a stereotaxic procedure. […] Good turning rats are defined as those which elicited at least 20 contralateral turns following amphetamine (2.5 mg/kg sc) in the 5 min time epoch beginning 25 min after administration and a mean of at least 20 contralateral turns recorded over a 30 min period after administration of apomorphine (0.25 mg/kg s.c.). […]
Following statistical randomization of the treatment groups rats are pretreated with compounds of the invention (0.1-3 mg/kg p.o.) or vehicle (2 ml/kg) and placed in the rotameters the contralateral rotational behaviour is then measured. […]

[2] = biological target: T1, Human dopamine-D3 receptor (Homo sapiens, UniProt P35462); experiment: In vitro functional receptor activity; assay type: cell-based
T1 construct: expressed in transfected cells
T1 sequence (P35462 whole entry): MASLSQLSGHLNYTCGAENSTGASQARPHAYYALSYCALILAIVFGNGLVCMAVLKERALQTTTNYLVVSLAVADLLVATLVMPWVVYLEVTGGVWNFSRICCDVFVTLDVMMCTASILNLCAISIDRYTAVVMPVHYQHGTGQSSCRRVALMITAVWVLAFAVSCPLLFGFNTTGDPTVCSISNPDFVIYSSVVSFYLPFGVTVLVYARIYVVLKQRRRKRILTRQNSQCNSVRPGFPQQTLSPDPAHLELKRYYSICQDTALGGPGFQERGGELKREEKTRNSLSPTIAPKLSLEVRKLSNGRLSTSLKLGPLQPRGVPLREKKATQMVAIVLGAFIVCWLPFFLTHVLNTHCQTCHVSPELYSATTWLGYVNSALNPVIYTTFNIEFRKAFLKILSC

β1-adrenergic = β1-adrenergic (Homo sapiens, UniProt P08588); experiment: In vitro receptor affinity, β1-adrenergic; assay type: binding
Chain of β1-adrenergic (P08588 whole entry): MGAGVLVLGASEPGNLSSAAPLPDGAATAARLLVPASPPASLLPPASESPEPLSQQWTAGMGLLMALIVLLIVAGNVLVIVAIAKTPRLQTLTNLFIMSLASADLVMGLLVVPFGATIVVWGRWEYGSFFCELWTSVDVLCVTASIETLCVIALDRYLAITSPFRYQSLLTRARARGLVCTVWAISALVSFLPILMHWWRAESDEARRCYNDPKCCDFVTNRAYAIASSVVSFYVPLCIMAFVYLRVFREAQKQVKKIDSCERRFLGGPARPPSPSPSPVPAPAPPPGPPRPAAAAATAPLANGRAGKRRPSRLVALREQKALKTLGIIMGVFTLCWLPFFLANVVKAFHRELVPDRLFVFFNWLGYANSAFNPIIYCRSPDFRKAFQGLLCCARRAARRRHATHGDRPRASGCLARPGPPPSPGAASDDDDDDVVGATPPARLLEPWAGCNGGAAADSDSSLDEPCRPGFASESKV
Description: as §1

[3] = test system: receptors for which the parent compound showed a high affinity; experiment: In vitro screening of the N-oxide metabolite (receptor affinity overall); assay type: binding; conditions: affinity very low or below the detection limit
From the text: In drug development, metabolites are routinely investigated for activity, toxicity, etc. […] These findings confirmed that in this case one of the most common situations with an N-oxide had occurred: metabolic deactivation.
as §1

5-HT7 = 5-HT7 (Homo sapiens, UniProt P34969); experiment: In vitro receptor affinity, 5-HT7; assay type: binding
Chain of 5-HT7 (P34969 whole entry): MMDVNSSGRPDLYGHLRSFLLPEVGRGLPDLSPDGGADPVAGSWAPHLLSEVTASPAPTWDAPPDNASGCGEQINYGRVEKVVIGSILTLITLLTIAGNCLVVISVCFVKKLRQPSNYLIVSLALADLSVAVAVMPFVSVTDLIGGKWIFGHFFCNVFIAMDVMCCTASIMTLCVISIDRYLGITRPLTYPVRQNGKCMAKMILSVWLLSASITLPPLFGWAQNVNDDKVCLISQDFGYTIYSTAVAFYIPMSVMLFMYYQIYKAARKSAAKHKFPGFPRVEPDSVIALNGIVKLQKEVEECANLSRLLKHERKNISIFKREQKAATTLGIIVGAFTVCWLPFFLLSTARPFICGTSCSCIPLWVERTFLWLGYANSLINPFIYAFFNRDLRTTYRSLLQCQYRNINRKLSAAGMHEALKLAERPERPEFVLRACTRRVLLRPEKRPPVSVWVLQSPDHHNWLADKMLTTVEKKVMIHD
Description: as §1

β2-adrenergic = β2-adrenergic (Homo sapiens, UniProt P07550); experiment: In vitro receptor affinity, β2-adrenergic; assay type: binding
Chain of β2-adrenergic (P07550 whole entry): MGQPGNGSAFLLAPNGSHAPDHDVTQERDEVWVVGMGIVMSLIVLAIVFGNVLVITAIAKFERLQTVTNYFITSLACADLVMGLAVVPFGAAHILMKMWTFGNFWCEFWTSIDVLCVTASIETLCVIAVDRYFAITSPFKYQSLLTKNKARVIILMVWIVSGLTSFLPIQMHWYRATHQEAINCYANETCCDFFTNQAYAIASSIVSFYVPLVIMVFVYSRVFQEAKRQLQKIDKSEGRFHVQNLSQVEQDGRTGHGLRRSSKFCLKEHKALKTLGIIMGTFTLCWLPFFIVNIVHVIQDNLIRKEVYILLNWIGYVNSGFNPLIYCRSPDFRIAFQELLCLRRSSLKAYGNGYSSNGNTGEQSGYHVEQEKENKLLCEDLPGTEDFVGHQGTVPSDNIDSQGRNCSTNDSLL
Description: as §1

5-HT1D = experiment: In vitro receptor affinity, 5-HT1D; assay type: binding; conditions: bovine; radioligand [3H]-serotonin
Description: as §1

5-HT1B = 5-HT1B (Rattus norvegicus, UniProt P28564); experiment: In vitro receptor affinity, 5-HT1B; assay type: binding
Chain of 5-HT1B (P28564 whole entry): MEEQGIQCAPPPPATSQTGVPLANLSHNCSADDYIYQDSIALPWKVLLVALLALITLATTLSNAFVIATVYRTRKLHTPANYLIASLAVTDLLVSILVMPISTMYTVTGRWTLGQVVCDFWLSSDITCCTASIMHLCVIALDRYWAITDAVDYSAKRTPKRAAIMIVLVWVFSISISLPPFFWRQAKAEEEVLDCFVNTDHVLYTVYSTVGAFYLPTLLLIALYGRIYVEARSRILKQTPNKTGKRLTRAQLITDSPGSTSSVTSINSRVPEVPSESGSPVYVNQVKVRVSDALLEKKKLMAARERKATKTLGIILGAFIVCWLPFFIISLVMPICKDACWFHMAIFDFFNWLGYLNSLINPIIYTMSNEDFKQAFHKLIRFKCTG
Description: as §1

α1-adrenergic = experiment: In vitro receptor affinity, α1-adrenergic; assay type: binding; conditions: rat; radioligand [3H]-prazosin
Description: as §1

Dopamine-D2 receptor = experiment: Apomorphine-induced climbing behaviour in mice; assay type: in vivo
Description: In Vivo Animal Model for Dopamine-D2 Receptor (Ant)Agonistic Activity
Apomorphine-induced climbing behaviour in mice (Costall B, Naylor R J and Nohria V, Differential actions of typical and atypical agents on two behavioural effects of apomorphine in the mouse, Brit J Pharmacol 1978, 63: 381-382).
For oral (p.o.) administration: to the desired quantity (0.5-5 mg) of the solid test compound in a glass tube, some glass beads were added and the solid was milled by vortexing for 2 minutes. After addition of 1 ml of a solution of 1% methylcellulose in water and 2% (v/v) of Poloxamer 188 (Lutrol F68), the compound was suspended by vortexing for 10 minutes. The pH was adjusted to 7. Remaining particles in the suspension were further suspended by using an ultrasonic bath.
For intravenous (i.v.) administration: compounds were dissolved in physiological saline (0.9% NaCl) and the pH was adjusted to 7.

[4] = Plasma levels of SLV308 and its N-oxide after oral dosing; assay type: in vivo; conditions: after oral administration; rats
From the text: These findings were corroborated by measurements of plasma levels of SLV308 and its N-oxide after oral dosing with SLV308 and the N-oxide.

5-HT2A = 5-HT2A (Homo sapiens, UniProt P28223); experiment: In vitro receptor affinity, 5-HT2A; assay type: binding
Chain of 5-HT2A (P28223 whole entry): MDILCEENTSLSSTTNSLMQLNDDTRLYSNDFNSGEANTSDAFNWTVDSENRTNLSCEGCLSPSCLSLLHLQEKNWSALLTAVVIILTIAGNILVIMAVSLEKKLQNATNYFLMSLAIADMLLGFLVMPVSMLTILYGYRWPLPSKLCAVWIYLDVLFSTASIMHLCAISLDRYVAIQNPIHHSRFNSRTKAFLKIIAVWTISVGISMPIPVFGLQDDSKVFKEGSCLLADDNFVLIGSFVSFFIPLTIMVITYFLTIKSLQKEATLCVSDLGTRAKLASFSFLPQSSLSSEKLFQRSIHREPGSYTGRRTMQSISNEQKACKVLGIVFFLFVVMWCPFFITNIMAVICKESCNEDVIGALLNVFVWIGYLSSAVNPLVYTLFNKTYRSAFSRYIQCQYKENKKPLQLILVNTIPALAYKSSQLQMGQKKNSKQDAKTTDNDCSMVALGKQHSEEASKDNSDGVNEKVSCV
Description: as §1

Chain of Dopamine-D5 (P21918 whole entry): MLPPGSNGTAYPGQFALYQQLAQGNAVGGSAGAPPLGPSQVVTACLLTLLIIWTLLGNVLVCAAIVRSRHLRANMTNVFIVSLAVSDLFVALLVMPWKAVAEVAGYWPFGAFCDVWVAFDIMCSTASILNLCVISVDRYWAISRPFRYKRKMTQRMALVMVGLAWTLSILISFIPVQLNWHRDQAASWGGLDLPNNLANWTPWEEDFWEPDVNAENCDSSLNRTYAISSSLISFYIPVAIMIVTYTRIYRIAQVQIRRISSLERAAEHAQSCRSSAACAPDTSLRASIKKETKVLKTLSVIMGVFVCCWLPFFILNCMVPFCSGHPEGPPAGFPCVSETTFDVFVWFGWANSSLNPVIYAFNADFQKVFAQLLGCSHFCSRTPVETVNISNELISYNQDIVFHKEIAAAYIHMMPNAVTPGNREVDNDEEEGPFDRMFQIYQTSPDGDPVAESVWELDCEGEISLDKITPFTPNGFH

C[N+]1([O-])CCN(c2cccc3[nH]c(=O)oc23)CC1 [N-oxide of SLV308, N-Oxide of SLV308]
Ki (Dopamine-D5): > 1000 nM
Ki (Dopamine-D2): > 1000 nM
Factor by which dopamine-D2 receptor affinities differ (N-oxide vs SLV308) (Dopamine-D2; potency ratio): ≥ 100
ED50 [1]: < 1 mg/kg
EC50 [2]: 50.1 nM
Human dopamine-D3 receptor intrinsic activity (α) [2]: 0.60
Kb [2]: > 10000 nM
Ki (β1-adrenergic): > 1000 nM
In vitro activity (in words) [3]: virtually inactive
Ki (5-HT7): > 1000 nM
Ki (β2-adrenergic): > 1000 nM
Ki (5-HT1D): > 1000 nM
Ki (5-HT1B): > 1000 nM
Ki (α1-adrenergic): > 1000 nM
In vivo activity compared with the parent compound (in words) (Dopamine-D2 receptor; administered intravenously): approximately one tenth of the activity of the parent compound
Antagonism of apomorphine induced climbing behavior after intravenous dosing: ED50 (Dopamine-D2 receptor; mice, i.v.): 0.90 mg/kg
Antagonism of apomorphine induced climbing behavior after oral dosing: ED50 (Dopamine-D2 receptor; mice, oral): 0.79 mg/kg
In vivo activity compared with the parent compound (in words) (Dopamine-D2 receptor; oral administration): equipotent with SLV308
Plasma levels of the N-oxide relative to SLV308 (in words) [4]: approximately equal
Ki (5-HT2A): > 1000 nM

Source: patent US7750013B2, “N-oxides as prodrugs of piperazine and piperidine derivatives” (Solvay Pharmaceuticals, B.V., priority 2005, dated 2010)
